ChEMBL document CHEMBL1201862, “PubChem BioAssay data set” (2004)
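Interpolation was linear, between the two tested concentrations surrounding the appropriate level; five concentrations were tested over 48 hours in 96-well plates. GI50 is the concentration that inhibits growth by half.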 The source made the active and inactive calls. Cut-off read from the data, not from the text of the source: active = GI50 up to about 1.1 µM and inactive = higher.

Columns and labels:
Assay in all cases: DTP human tumour cell line panel, 48 h
786-0 = test system: 786-0
A549 = test system: A549
HCT-116 = test system: HCT-116
HT-29 = test system: HT-29
K562 = test system: K562
Malme-3M = test system: Malme-3M
NCI-H226 = test system: NCI-H226
NCI-H23 = test system: NCI-H23
OVCAR-3 = test system: OVCAR-3
OVCAR-4 = test system: OVCAR-4
OVCAR-5 = test system: OVCAR-5
PC-3 = test system: PC-3
RXF 393 = test system: RXF 393
SF-268 = test system: SF-268
SK-MEL-2 = test system: SK-MEL-2
SK-MEL-5 = test system: SK-MEL-5
SK-OV-3 = test system: SK-OV-3
UO-31 = test system: UO-31
LOX IMVI = test system: LOX IMVI
HOP-92 = test system: HOP-92

Measured: GI50

N#C/C(=C1/c2cc([N+](=O)[O-])ccc2-c2c1cc([N+](=O)[O-])cc2[N+](=O)[O-])N1CCCCC1
inactive: 786-0 39.2 µM | A549 > 100 µM | HCT-116 27.3 µM | HT-29 > 100 µM | K562 > 100 µM | Malme-3M > 100 µM | NCI-H226 > 100 µM | NCI-H23 55.7 µM | OVCAR-3 > 100 µM | OVCAR-4 23.9 µM | OVCAR-5 > 100 µM | PC-3 > 100 µM | RXF 393 34.6 µM | SF-268 > 100 µM | SK-MEL-2 > 100 µM | SK-MEL-5 91.4 µM | SK-OV-3 93.1 µM | UO-31 > 100 µM

CSS(C)(=O)=O
inactive: 786-0 39.6 µM | A549 44.7 µM | HCT-116 58.6 µM | HT-29 31 µM | K562 31.3 µM | LOX IMVI 60.1 µM | Malme-3M 26.9 µM | NCI-H226 21.4 µM | NCI-H23 19.9 µM | OVCAR-3 16.7 µM | OVCAR-4 27.4 µM | OVCAR-5 17.5 µM | PC-3 18 µM | RXF 393 26.5 µM | SF-268 31.5 µM | SK-MEL-2 27.3 µM | SK-MEL-5 61.5 µM | UO-31 24.5 µM

CN(c1ccc(Cl)cc1)S(=O)(=O)c1ccc([N+](=O)[O-])cc1
inactive: 786-0 > 100 µM | A549 > 100 µM | HCT-116 > 100 µM | HT-29 > 100 µM | K562 > 100 µM | LOX IMVI > 100 µM | Malme-3M 84.7 µM | NCI-H226 > 100 µM | NCI-H23 > 100 µM | OVCAR-3 > 100 µM | OVCAR-4 > 100 µM | OVCAR-5 > 100 µM | PC-3 > 100 µM | RXF 393 > 100 µM | SF-268 > 100 µM | SK-MEL-2 > 100 µM | SK-MEL-5 26 µM | SK-OV-3 > 100 µM | UO-31 > 100 µM

CN(C)c1ccc(/C=C2\Oc3ccccc3C2=O)cc1
inactive: 786-0 > 100 µM | A549 > 100 µM | HCT-116 > 100 µM | HT-29 > 100 µM | K562 21.5 µM | NCI-H226 > 100 µM | NCI-H23 > 100 µM | OVCAR-3 > 100 µM | OVCAR-4 > 100 µM | PC-3 > 100 µM | RXF 393 > 100 µM | SF-268 > 100 µM | SK-MEL-5 > 100 µM | SK-OV-3 > 100 µM | UO-31 52.2 µM

O=C1c2ccccc2-n2nnnc2C2CSCN12 (configuration not stated)
inactive: 786-0 > 100 µM | A549 > 100 µM | HCT-116 > 100 µM | HT-29 > 100 µM | K562 56.2 µM | LOX IMVI > 100 µM | Malme-3M > 100 µM | NCI-H226 > 100 µM | OVCAR-3 > 100 µM | OVCAR-4 > 100 µM | OVCAR-5 > 100 µM | PC-3 > 100 µM | RXF 393 > 100 µM | SF-268 > 100 µM | SK-MEL-2 > 100 µM | SK-MEL-5 > 100 µM | SK-OV-3 > 100 µM | UO-31 > 100 µM

COc1cc(C/C=C/c2ccccc2)c(OC)cc1O [VIOLASTYRENE]
inactive: 786-0 13.8 µM | A549 43.9 µM | HCT-116 17.3 µM | HOP-92 15.4 µM | HT-29 20.9 µM | K562 15.6 µM | LOX IMVI 17.7 µM | Malme-3M 22.6 µM | NCI-H226 24.5 µM | NCI-H23 21.3 µM | OVCAR-3 20.1 µM | OVCAR-4 18 µM | OVCAR-5 24.7 µM | PC-3 21.6 µM | SF-268 25.9 µM | SK-MEL-2 23.2 µM | SK-MEL-5 23.7 µM | UO-31 16.8 µM

COC(=O)CNS(=O)(=O)c1ccc(-c2c3nc(c(-c4ccc(S(=O)(=O)NCC(=O)OC)cc4)c4ccc([nH]4)c(-c4ccc(S(=O)(=O)NCC(=O)OC)cc4)c4nc(c(-c5ccc(S(=O)(=O)NCC(=O)OC)cc5)c5ccc2[nH]5)C=C4)C=C3)cc1
inactive: 786-0 > 100 µM | A549 > 100 µM | HCT-116 > 100 µM | HT-29 > 100 µM | K562 > 100 µM | LOX IMVI > 100 µM | Malme-3M > 100 µM | NCI-H23 > 100 µM | OVCAR-3 > 100 µM | OVCAR-4 > 100 µM | OVCAR-5 > 100 µM | PC-3 > 100 µM | RXF 393 > 100 µM | SF-268 > 100 µM | SK-MEL-2 > 100 µM | SK-MEL-5 > 100 µM | SK-OV-3 > 100 µM | UO-31 > 100 µM

CC(=O)N(C)c1ccc(Nc2ccnc3ccc4nn(C)nc4c23)cc1
inactive: 786-0 26.9 µM | A549 17.5 µM | HCT-116 19 µM | HT-29 29.4 µM | LOX IMVI 16 µM | Malme-3M 18.9 µM | NCI-H226 15.6 µM | NCI-H23 32.4 µM | OVCAR-3 19.3 µM | OVCAR-4 28.4 µM | OVCAR-5 30.1 µM | PC-3 26.9 µM | RXF 393 16.9 µM | SF-268 24.8 µM | SK-MEL-2 17.9 µM | SK-MEL-5 19.9 µM | SK-OV-3 22.6 µM | UO-31 9.02 µM

CCCNC(=O)NNC(=O)c1c[nH]c2nc(C)ccc2c1=O
inactive: 786-0 > 100 µM | A549 > 100 µM | HCT-116 > 100 µM | HT-29 > 100 µM | K562 > 100 µM | LOX IMVI > 100 µM | Malme-3M > 100 µM | NCI-H226 > 100 µM | NCI-H23 > 100 µM | OVCAR-3 > 100 µM | OVCAR-4 > 100 µM | OVCAR-5 > 100 µM | PC-3 > 100 µM | RXF 393 > 100 µM | SF-268 > 100 µM | SK-MEL-2 > 100 µM | SK-MEL-5 > 100 µM | UO-31 > 100 µM

N#CC(C(=O)O)C(c1c(Cl)cccc1Cl)C(C#N)C(=O)O (configuration not stated)
inactive: 786-0 > 100 µM | A549 > 100 µM | HCT-116 > 100 µM | HOP-92 > 100 µM | HT-29 > 100 µM | K562 > 100 µM | LOX IMVI > 100 µM | Malme-3M > 100 µM | NCI-H226 > 100 µM | NCI-H23 > 100 µM | OVCAR-3 > 100 µM | OVCAR-4 > 100 µM | OVCAR-5 > 100 µM | PC-3 > 100 µM | SF-268 > 100 µM | SK-MEL-2 > 100 µM | SK-MEL-5 > 100 µM | SK-OV-3 > 100 µM | UO-31 > 100 µM

N#Cc1nc(COCCOCc2ccc(F)cc2)oc1N
inactive: 786-0 > 100 µM | A549 > 100 µM | HCT-116 > 100 µM | HT-29 > 100 µM | K562 > 100 µM | LOX IMVI > 100 µM | NCI-H226 > 100 µM | NCI-H23 > 100 µM | OVCAR-3 > 100 µM | OVCAR-4 > 100 µM | OVCAR-5 > 100 µM | PC-3 > 100 µM | RXF 393 > 100 µM | SF-268 > 100 µM | SK-MEL-2 > 100 µM | SK-MEL-5 > 100 µM | SK-OV-3 > 100 µM | UO-31 50.4 µM
